According to patent publication US20140255321A1, “Active Sunscreen Composition” (Rhode Island Hospital, priority 2008, published 2014):

Tested on: Normal Human Dermal Fibroblast cells
Assay: CometAssay of DNA damage in dermal fibroblasts exposed to a solar simulator under a protective layer
Assay type: cell-based
Conditions: for Comet tail appearance / extent of DNA damage (in words): SYBR I Green visualisation after electrophoresis 25 minutes at 20 volts, FIGS. 2 and 3; for Comet tail appearance / extent of DNA damage (in words) / Integral of Student's Probability Density for Tail Length/Total Length: disodium salt
From the text: Using a model for human skin (confluent human dermal fibroblasts, Lonza CC-2511), a fluorescent dye was used to evaluate induction of […]. Stilbene-420 was selected for having a broad range of absorption in the UVB and UVA ranges while retaining a relatively narrow emission spectrum centered around 420 nm. A 2% solution of stilbene in water was used for this study.
Stilbene-420 was compared to both unshielded cells and commercial SPF 45 sunblock in their ability to protect Normal Human Dermal Fibroblast cells raised on Lonza FGM-2 media from exposure to the full power of a solar simulator. A CometAssay was used to assess DNA damage to the cells. The resulting data was filtered and analyzed with an Integral of Student's Probability Density.
Using Fibroblast Grown Medium with 10% FBS, normal Human Dermal Fibroblasts (obtained from Lonza Clonetics) were grown to confluence in a 12-well plate. After 6 days, one of the wells was harvested by scraping and stored at 4° C. Using custom aluminum holders, a UV-transparent quartz window was placed above each well, and space between the window and holder sealed with 5% agarose. The windows were then covered with 0.5 mL of 0.5% Stilbene 420 florescent dye in water, commercial SPF 45 sunblock or left alone. Then, the plate was exposed to a Solar Simulator for 22.5 minutes at full intensity. Afterwards, the cells were harvested by scraping and all the cells were suspended in low-melting point for the CometAssay using a kit produced by Trevigen. Though the results of DNA damage are often easy to see, for example, cell death, quantifying the extent to which this damage has occurred can be difficult. The CometAssay is a test measures fairly low levels of DNA Damage. The basic concept of the test is that, given more incipient DNA damage that is dealt, the more fragments of DNA are created and the smaller they become. By embedding the cells in a low melting point agarose gel and lysing them, release of these DNA fragments occurs without inducing further damage. A simple gel electrophoresis process causes the fragments to begin to migrate out of the lysed cells. As smaller fragments move faster, a comet-like tail develops, which can be visualized by using a dye like SYBR1 Green. The relative size, intensity and length of this tail are directly related to the amount of DNA damage a cell has received.
After lysing the cells and running them on an electrophoresis apparatus for 25 minutes at 20 volts, the DNA fragment “tails” were visualized with SYBR I Green dye under a microscope using a 492 nm laser and stored (FIGS. 2a.-c.). Using a MatLAB script, the images were filtered by their intensity to isolate individual cells (FIG. 3). […] This is indicative of damaged DNA which forms a heterogeneous population of DNA strand lengths.
Each cell was measured by the width of the “core,” where the larger, less-damaged pieces of DNA remained, and the length of the “tail” produced from the migration of the smaller fragments. These values were compared in several ratios and a Student t-test was performed (Table 1). From those t-values an Integral of Student's Probability Density was calculated assuming an unequal variance between the different protections. This latter value determines the probability that the data comes from the same population as the control data. For the sunblock-protected cells, there is just an 11% chance when comparing the ratio of tail length to total length of the “comet” to the same ratio for the control. For the unprotected cells, the probability drops to just 4.7%. But, for the dye-protected cells, there was a 96.6% came from the same population, indicating the dye provided the best protection, keeping the cells closest to their original state.

[1] = Student t-test vs unexposed control cells, Solar Simulator 22.5 minutes at full intensity
[2] = probability that data come from the same population as the control, unequal variance assumed

O=S(=O)([O-])c1ccccc1C=Cc1ccc(-c2ccc(C=Cc3ccccc3S(=O)(=O)[O-])cc2)cc1.[Na+].[Na+] [Stilbene 420, 2,2″-([1,1′-biphenyl]-4.4′-dyldi-2,1-ethenediyl)bis-benzenesulfonic acid disodium salt]
Comet tail appearance / extent of DNA damage (in words): narrower, shorter tail | Comet tail appearance / extent of DNA damage (in words) (listed as stillbene): do not form tails | Tail Length/Core Width T-Value [1]: 0.2257 | Tail Length/Total Length T-Value [1]: 0.0437 | Difference T-value (Student t-test vs unexposed control cells, comet tail/core measures, Solar Simulator 22.5 minutes at full intensity): 0.1870 | Integral of Student's Probability Density for Difference [2]: 85.83% | Integral of Student's Probability Density for Tail Length/Core Width [2]: 82.7% | Integral of Student's Probability Density for Tail Length/Total Length [2]: 96.63% | Integral of Student's Probability Density for Tail Length/Total Length (probability that data come from the same population as the control, unequal variance assumed, listed as dye): 96.6% | Greater chance of being from the same population of unexposed cells than the sunblock protected cells (statistical comparison of Stilbene-protected vs sunblock-protected cells): more than a forty percent greater chance
